From patent US9750724B2, “Use of an aromatase inhibitor for the treatment of hypogonadism and related diseases” (Mereo BioPharma 2 Limited, priority 2011, dated 2017)
Where two headings read alike, the source gives them in different places.

Columns and labels:
[1] = previous rat experiments; Batzl-Hartmann 1994, Bhatnagar 1996; cited from earlier work
[2] = tested on: estrone, estrone sulfate and estradiol; experiment: Single ascending dose study in women, pharmacodynamics (estrogen suppression); format: in vivo, human
Method: (§1) Patients received either 0.1 mg, 1 mg, and 10 mg drug substance containing hard gelatin capsules or appropriate matching placebo capsules.
(§2) A minimal toxic dose (MTD) was not reached. […] Table 3 presents the PK parameters based on preliminary analysis of the concentration-time profile obtained from this study.

[3] = Single ascending dose study in pre- and post-menopausal women, pharmacokinetics; format: in vivo, human; conditions: for AUC(0-t): AUC (0-tlast) Mean; for Cmax: Cmax Mean
Description: The drug concentration in plasma and/or serum samples can be determined by a number of different ways, e.g. HPLC or LC-MS/MS analyses. […]
as §2

[4] = Human ADME study, single oral dose of 1 mg 14C-CGP47645 in healthy postmenopausal women; format: in vivo
Description: The study was a single dose, single group, open label ADME study of 8 healthy postmenopausal women. […] The study design consisted of a 28-day screening period, one baseline visit (Day −1), a domiciled period beginning from admission on Day −1 through discharge on Day 7, 2 outpatient visits for PK blood collection on Days 14 (±1) and 21 (±1), 2 subject specific adipose tissue collection visits, and an end-of-study 6 month safety follow-up visit.
The primary goal of this study was to assess the partitioning of CGP47645 into abdominal adipose tissue as a measure of peripheral tissue targeting and to assess whether there may be a longer T½ metabolite, as well as to elucidate the metabolic profile, obtain information on routes of excretion and mass balance. Adipose tissue samples were collected in a sparse sampling protocol, where each subject underwent two collections of adipose tissue, with each subject biopsied at different times.

[5] = Pharmacokinetics after oral administration to rats; format: in vivo, rat
Description: In one embodiment, the compound may even show an apparent elimination half-life of at least about 30 days or even at least 35 days. […] The results observed were completely unexpected in view of the previous rat experiments showing a half-life of about a week [Batzl-Hartmann et al, 1994 and Bhatnagar et al, 1996]. This surprising extremely long half-life of the compound in humans gives rise to the particular dosing scheduled of the invention.

[6] = Physicochemical properties of the crystalline compound; conditions: crystalline powder
[7] = Single ascending dose study in women, safety and bone density (DEXA); format: in vivo; conditions: single doses 0.01 mg through 20 mg, post-menopausal women
Method: as §1, §2

[8] = female, human, in vivo, 0.01 mg
[9] = female, human, in vivo, 0.03 mg

N#Cc1ccc(C(F)(c2ccc(C#N)cc2)n2cncn2)cc1 [CGP47645, 4,4′-[fluoro-(1-H-1,2,4-triazol-1-yl)methylene]bisbenzonitrile]
half-life [1]: about a week | estrone suppression compared with letrozole ([2]; postmenopausal women, doses of 0.1 mg and 0.3 mg, letrozole 2.5 mg): at least equal to letrozole | inhibition of estrone, estrone sulfate and estradiol ([2]; single doses, women): dose-dependent inhibition | Tmax [3, 8]: 0.0417 days | AUC(0-t) [3, 8]: 1.4 ng·h/mL | Cmax [3, 8]: 0.2 ng/mL | half-life ([3]; female, human, in vivo, 0.01 mg, T1/2 Mean): 2.3 days | AUC(0-t) [3, 9]: 24.1 ng·h/mL | Cmax [3, 9]: 0.4 ng/mL | half-life ([3]; female, human, in vivo, 0.03 mg, T1/2 Mean): 16.5 days | T1/2 Mean ([3]; female, human, in vivo, 0.1 mg): 23.5 days | Tmax ([3]; female, human, in vivo, 0.1 mg): 0.0417 days | Tmax Median ([3]; female, human, in vivo, 0.1 mg): 0.042 days | AUC(0-t) ([3]; female, human, in vivo, 0.1 mg): 123 ng·h/mL | Cmax ([3]; female, human, in vivo, 0.1 mg): 1.8 ng/mL | half-life ([3]; female, human, in vivo, 0.1 mg, T1/2 Mean): 18.2 days | Tmax ([3]; female, human, in vivo, 0.3 mg): 0.0417 days | AUC(0-t) ([3]; female, human, in vivo, 0.3 mg): 605 ng·h/mL | Cmax ([3]; female, human, in vivo, 0.3 mg): 5.1 ng/mL | half-life ([3]; female, human, in vivo, 0.3 mg, T1/2 Mean): 23.5 days | Tmax ([3]; female, human, in vivo, 1 mg): 0.0417 days | AUC(0-t) ([3]; female, human, in vivo, 1 mg): 3200 ng·h/mL | Cmax ([3]; female, human, in vivo, 1 mg): 12.8 ng/mL | half-life ([3]; female, human, in vivo, 1 mg, T1/2 Mean): 22.4 days | Tmax ([3]; female, human, in vivo, 3 mg): 0.0417 days | AUC(0-t) ([3]; female, human, in vivo, 3 mg): 10100 ng·h/mL | Cmax ([3]; female, human, in vivo, 3 mg): 38.4 ng/mL | half-life ([3]; female, human, in vivo, 3 mg, T1/2 Mean): 25 days | Tmax ([3]; female, human, in vivo, 10 mg): 0.0833 days | AUC(0-t) ([3]; female, human, in vivo, 10 mg): 41700 ng·h/mL | Cmax ([3]; female, human, in vivo, 10 mg): 124 ng/mL | half-life ([3]; female, human, in vivo, 10 mg, T1/2 Mean): 27.3 days | Tmax ([3]; female, human, in vivo, 20 mg): 0.0833 days | AUC(0-t) ([3]; female, human, in vivo, 20 mg): 76700 ng·h/mL | Cmax ([3]; female, human, in vivo, 20 mg): 270 ng/mL | half-life ([3]; female, human, in vivo, 20 mg, T1/2 Mean): 26.9 days | half-life ([3]; female, human, in vivo, half life): ~25 days | half-life ([3]; female, human, in vivo, half-life in serum): 22 to 29 days | Tmax ([3]; female, human, in vivo, po): 0.021 to 0.083 days | median Tmax ([3]; female, human, in vivo, po): ≤ 0.042 days | half-life ([3]; female, human, in vivo, po, half-life): 23 to 27 days | differences in pharmacokinetics between post- and pre-menopausal women ([3]; in vivo): No differences | dose proportionality of pharmacokinetics ([3]; single doses 0.01 to 20 mg, women): dose proportional pharmacokinetics | metabolites in plasma ([4]; LSC and LC-MS): No metabolites were detected in plasma | Kp ([4]; female, human, abdominal adipose tissue, oral, 1 mg, postmenopausal women, read-out: accumulation in fat tissue in comparison to exposure in plasma): 1 to 3 | half-life ([4]; female, human, single oral 1 mg, plasma, parent drug, read-out: terminal elimination half-life (converted)): ~28 days | safety and tolerability ([4]; single oral 1 mg 14C-CGP47645): safe and well tolerated | share of renally eliminated radioactivity recovered as unchanged drug ([4]; single oral 1 mg 14C-CGP47645): 16% | share of total radioactivity excreted after 6 days that was renally eliminated ([4]; single oral 1 mg 14C-CGP47645): Approximately 84% | absorption ([4]; single oral 1 mg, healthy postmenopausal women): fast and almost complete absorption | duration of persistent plasma concentrations post-dose ([4]; single oral 1 mg, terminal phase): > 4000 h | main metabolites identified in urine ([4]; three main metabolites): a carbinol derivative and two glucuronides | exposure (AUC) versus dose [5]: proportional to the administered dose | half-life ([5]; rat, in vivo, read-out: T½ (converted)): 3.12 days | hygroscopicity [6]: not hygroscopic | minimal toxic dose (MTD) [7]: not reached
